Source: ChEMBL document CHEMBL2346513, “Synthesis and evaluation of methylsulfonylnitrobenzamides (MSNBAs) as inhibitors of the thyroid hormone receptor-coactivator interaction” (Bioorg Med Chem Lett, 2013)

Columns and labels:
[1] = tested on: HepG2; assay: Cytotoxicity against human HepG2 cells assessed as ATP level after 72 hrs by CellTiter-Glo assay; type: cell-based; details: HepG2, 72 h
[2] = molecular target: T1, Vitamin D3 receptor (Homo sapiens, UniProt P11473); assay: Inhibition of VDR (unknown origin) interaction to SRC2-3 peptide by fluorescence polarization assay
T1 sequence (P11473 whole entry): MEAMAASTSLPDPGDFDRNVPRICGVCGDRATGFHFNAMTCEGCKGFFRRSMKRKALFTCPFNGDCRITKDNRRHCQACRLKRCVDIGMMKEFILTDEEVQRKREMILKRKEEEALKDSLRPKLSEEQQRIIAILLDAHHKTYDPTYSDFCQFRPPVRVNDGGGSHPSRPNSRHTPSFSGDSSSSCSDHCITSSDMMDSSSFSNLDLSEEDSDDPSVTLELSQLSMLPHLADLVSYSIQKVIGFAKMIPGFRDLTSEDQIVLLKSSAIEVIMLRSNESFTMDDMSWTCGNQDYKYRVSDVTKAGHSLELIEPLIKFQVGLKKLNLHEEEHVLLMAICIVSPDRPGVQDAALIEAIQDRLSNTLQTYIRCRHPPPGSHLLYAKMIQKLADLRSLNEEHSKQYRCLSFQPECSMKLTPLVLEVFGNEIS

[3] = molecular target: T2, Thyroid hormone receptor alpha (Homo sapiens, UniProt P10827); assay: Inhibition of TRalpha-LBD (unknown origin) interaction to texas red-labeled SRC2-2 peptide by fluorescence polarization assay
T2 sequence (P10827 whole entry): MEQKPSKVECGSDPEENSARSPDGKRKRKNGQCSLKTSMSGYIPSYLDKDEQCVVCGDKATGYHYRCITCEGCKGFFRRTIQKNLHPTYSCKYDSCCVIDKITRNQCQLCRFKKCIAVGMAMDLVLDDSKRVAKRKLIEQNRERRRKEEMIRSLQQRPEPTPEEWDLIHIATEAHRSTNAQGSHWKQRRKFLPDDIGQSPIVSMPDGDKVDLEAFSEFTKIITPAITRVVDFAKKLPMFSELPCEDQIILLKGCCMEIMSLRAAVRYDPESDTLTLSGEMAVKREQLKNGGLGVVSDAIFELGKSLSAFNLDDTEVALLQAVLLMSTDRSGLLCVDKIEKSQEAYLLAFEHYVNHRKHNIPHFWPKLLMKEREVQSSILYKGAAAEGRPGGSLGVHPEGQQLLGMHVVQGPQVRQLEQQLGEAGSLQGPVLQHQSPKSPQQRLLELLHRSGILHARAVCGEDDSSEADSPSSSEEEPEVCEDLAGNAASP

[4] = molecular target: T3, Thyroid hormone receptor beta (Homo sapiens, UniProt P10828); assay: Inhibition of TRbeta-LBD (unknown origin) interaction to texas red-labeled SRC2-2 peptide by fluorescence polarization assay
T3 sequence (P10828 whole entry): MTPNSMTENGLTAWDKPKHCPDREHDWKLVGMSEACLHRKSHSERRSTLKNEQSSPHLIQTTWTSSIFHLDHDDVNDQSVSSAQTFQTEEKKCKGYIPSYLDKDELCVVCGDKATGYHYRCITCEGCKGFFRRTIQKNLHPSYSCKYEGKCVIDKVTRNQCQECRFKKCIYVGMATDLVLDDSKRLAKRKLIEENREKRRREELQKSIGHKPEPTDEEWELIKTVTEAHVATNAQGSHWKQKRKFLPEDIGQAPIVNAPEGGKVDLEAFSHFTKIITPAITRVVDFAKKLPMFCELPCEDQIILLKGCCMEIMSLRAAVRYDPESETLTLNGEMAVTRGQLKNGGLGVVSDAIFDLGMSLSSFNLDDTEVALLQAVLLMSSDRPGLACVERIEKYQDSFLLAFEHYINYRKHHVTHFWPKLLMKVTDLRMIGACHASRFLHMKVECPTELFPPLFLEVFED

IC50 [2] [µM] | IC50 [3] [µM] | IC50 [4] [µM] | Compound | EC50 [1] [µM]
> 60 | > 60 | > 60 | CC1Cc2ccccc2N1C(=O)C1CCN(C(=O)c2ccc(S(C)(=O)=O)c([N+](=O)[O-])c2)CC1 (stereo not given) | > 27
> 60 | > 60 | > 60 | CN(CC(=O)N1CCN(c2ccccc2)CC1)C(=O)c1ccc(S(C)(=O)=O)c([N+](=O)[O-])c1 | > 27
> 60 | > 60 | > 60 | CCCN(C(=O)CCCNC(=O)c1ccc(S(C)(=O)=O)c([N+](=O)[O-])c1)c1ccccc1 | > 27
> 60 | > 60 | > 60 | CN(Cc1ccccc1F)C(=O)CN(C)C(=O)c1ccc(S(C)(=O)=O)c([N+](=O)[O-])c1 | > 27
> 60 | > 60 | > 60 | CS(=O)(=O)c1ccc(C(=O)NCCC(=O)N2CCN(c3ccc(F)cc3)CC2)cc1[N+](=O)[O-] | > 27
> 60 | > 60 | > 60 | CN(CC(=O)N(Cc1ccccc1)Cc1ccccc1)C(=O)c1ccc(S(C)(=O)=O)c([N+](=O)[O-])c1 | > 27
> 60 | > 60 | > 60 | CN(CC(=O)NC12CC3CC(CC(C3)C1)C2)C(=O)c1ccc(S(C)(=O)=O)c([N+](=O)[O-])c1 | > 27
> 60 | > 60 | > 60 | CN(Cc1ccccc1)C(=O)CN(C)C(=O)c1ccc(S(C)(=O)=O)c([N+](=O)[O-])c1 | > 27
> 60 | > 60 | > 60 | CC1Cc2ccccc2N1C(=O)CN(C)C(=O)c1ccc(S(C)(=O)=O)c([N+](=O)[O-])c1 (stereo not given) | 5.5
44 | 25 | 31 | CS(=O)(=O)c1ccc(C(=O)NCCC(=O)NC23CC4CC(CC(C4)C2)C3)cc1[N+](=O)[O-] | > 27
> 60 | > 60 | > 60 | CS(=O)(=O)c1ccc(C(=O)NCCC(=O)N2CCC(c3ccccc3)CC2)cc1[N+](=O)[O-] | > 27
> 60 | > 60 | > 60 | CS(=O)(=O)c1ccc(C(=O)NCCC(=O)N2CCCCC2)cc1[N+](=O)[O-] | > 27
> 60 | > 60 | > 60 | CS(=O)(=O)c1ccc(C(=O)NCCC(=O)N2CCc3ccccc32)cc1[N+](=O)[O-] | > 27
> 60 | > 60 | > 60 | CS(=O)(=O)c1ccc(C(=O)NCCC(=O)N2CCN(c3ccc(C(F)(F)F)cc3)CC2)cc1[N+](=O)[O-] | > 27
> 60 | > 60 | > 60 | CN(Cc1ccccc1)C(=O)CCCNC(=O)c1ccc(S(C)(=O)=O)c([N+](=O)[O-])c1 | > 27
> 60 | > 60 | > 60 | CS(=O)(=O)c1ccc(C(=O)NCCCC(=O)N2CCc3ccccc3C2)cc1[N+](=O)[O-] | > 27
> 60 | > 60 | > 60 | CS(=O)(=O)c1ccc(C(=O)N2CCC(C(=O)NC34CC5CC(CC(C5)C3)C4)CC2)cc1[N+](=O)[O-] | > 27
> 60 | > 60 | > 60 | CN(Cc1ccccc1)C(=O)CCNC(=O)c1ccc(S(C)(=O)=O)c([N+](=O)[O-])c1 | > 27
> 60 | > 60 | > 60 | CN(Cc1ccccc1F)C(=O)CCNC(=O)c1ccc(S(C)(=O)=O)c([N+](=O)[O-])c1 | > 27
> 60 | 33 | 38 | CC1CCN(C(=O)CNC(=O)c2ccc(S(C)(=O)=O)c([N+](=O)[O-])c2)CC1 | > 27

IC50 [2] [µM] | IC50 [3] [µM] | IC50 [4] [µM] | Compound | EC50 [1] [µM]
40 | 32 | 50 | CCCN(C(=O)CCNC(=O)c1ccc(S(C)(=O)=O)c([N+](=O)[O-])c1)c1ccccc1 | > 27
> 60 | > 60 | > 60 | CN(CC(=O)N1CCc2ccccc2C1)C(=O)c1ccc(S(C)(=O)=O)c([N+](=O)[O-])c1 | > 27
> 60 | > 60 | > 60 | CS(=O)(=O)c1ccc(C(=O)N2CCC(C(=O)N3CCN(c4ccccc4F)CC3)CC2)cc1[N+](=O)[O-] | > 27
> 60 | 4.2 | 5.8 | CN(C(=O)CNC(=O)c1ccc(S(C)(=O)=O)c([N+](=O)[O-])c1)c1ccccc1 | > 27
> 60 | > 60 | > 60 | CN(C(=O)CCCNC(=O)c1ccc(S(C)(=O)=O)c([N+](=O)[O-])c1)c1ccccc1 | > 27
> 60 | > 60 | > 60 | CN(Cc1cccc(F)c1)C(=O)C1CCN(C(=O)c2ccc(S(C)(=O)=O)c([N+](=O)[O-])c2)CC1 | > 27
> 60 | > 60 | > 60 | CS(=O)(=O)c1ccc(C(=O)NCC(=O)N2CCN(c3ccccc3F)CC2)cc1[N+](=O)[O-] | > 27
> 60 | 9.6 | 16 | CS(=O)(=O)c1ccc(C(=O)NCC(=O)NC23CC4CC(CC(C4)C2)C3)cc1[N+](=O)[O-] | > 27
> 60 | > 60 | > 60 | CS(=O)(=O)c1ccc(C(=O)NCCCC(=O)N2CCC(c3ccccc3)CC2)cc1[N+](=O)[O-] | > 27
38 | 33 | > 60 | CS(=O)(=O)c1ccc(C(=O)NCCC(=O)N(Cc2ccccc2)Cc2ccccc2)cc1[N+](=O)[O-] | > 27
50 | > 60 | 46 | CS(=O)(=O)c1ccc(C(=O)NCC(=O)N2CCc3ccccc3C2)cc1[N+](=O)[O-] | > 27
> 60 | > 60 | > 60 | CS(=O)(=O)c1ccc(C(=O)N2CCC(C(=O)N(Cc3ccccc3)c3ccccc3)CC2)cc1[N+](=O)[O-] | > 27
> 60 | > 60 | > 60 | CN(CC(=O)N1CCCCC1)C(=O)c1ccc(S(C)(=O)=O)c([N+](=O)[O-])c1 | 11.3
> 60 | > 60 | > 60 | CN(CC(=O)N1Cc2ccccc2C1)C(=O)c1ccc(S(C)(=O)=O)c([N+](=O)[O-])c1 | > 27
51 | 58 | > 60 | CS(=O)(=O)c1ccc(C(=O)NCC(=O)N2CCN(c3ccc(F)cc3)CC2)cc1[N+](=O)[O-] | 12.9
> 60 | > 60 | > 60 | CS(=O)(=O)c1ccc(C(=O)NCCCC(=O)N2CCN(c3ccccc3F)CC2)cc1[N+](=O)[O-] | > 27
> 60 | > 60 | > 60 | CC1CCN(C(=O)CN(C)C(=O)c2ccc(S(C)(=O)=O)c([N+](=O)[O-])c2)CC1 | > 27
> 60 | > 60 | > 60 | CS(=O)(=O)c1ccc(C(=O)N2CCC(C(=O)N3CCN(c4ccccc4)CC3)CC2)cc1[N+](=O)[O-] | > 27
> 60 | > 60 | > 60 | CN(Cc1ccccc1)C(=O)C1CCN(C(=O)c2ccc(S(C)(=O)=O)c([N+](=O)[O-])c2)CC1 | > 27
> 60 | > 60 | > 60 | CCCN(C(=O)CN(C)C(=O)c1ccc(S(C)(=O)=O)c([N+](=O)[O-])c1)c1ccccc1 | > 27
